According to patent publication US11174248B2, “Indazolyl-spiro[2.3]hexane-carbonitrile derivatives as LRRK2 inhibitors, pharmaceutical compositions, and uses thereof” (Merck Sharp & Dohme Corp., priority 2017, dated 2021):

Target: GST-tagged truncated human mutant G2019S LRRK2 (Homo sapiens (Human), UniProt Q5S007, G2019S)
Test: LRRK2 Km ATP LanthaScreen Assay
Format: biochemical
Conditions: 134 μM ATP (Km ATP); fluorescein-labeled LRRKtide substrate; mean IC50 values
Protocol: Unless otherwise noted, all LRRK2 IC50 data presented in tables refers to the LRRK2 Km ATP LanthaScreen™ Assay that is described in the Biological Assay section.
Biological Assay: LRRK2 Km ATP LanthaScreen™ Assay
The LRRK2 kinase activity reported herein as IC50 values was determined with LanthaScreen™ technology from Life Technologies Corporation (Carlsbad, Calif.) using GST-tagged truncated human mutant G2019S LRRK2 in the presence of the fluorescein-labeled peptide substrate LRRKtide, also from Life Technologies. The data presented for the Km ATP LanthaScreen™ Assay represents mean IC50 values based on several test results and may have reasonable deviations depending on the specific conditions and reagents used. Assays were performed in the presence of 134 μM ATP (Km ATP). Upon completion, the assay was stopped and phosphorylated substrate detected with a terbium (Tb)-labeled anti-pERM antibody (cat. no. PV4898). The compound dose response was prepared by diluting a 10 mM stock of compound to a maximum concentration of 9.99 μM in 100% dimethylsulfoxide followed by custom fold serial dilution in dimethylsulfoxide nine times. Twenty nanoliters of each dilution was spotted via a Labcyte Echo onto a 384-well black-sided plate (Corning 3575) followed by 15 μl of a 1.25 nM enzyme solution in 1× assay buffer (50 mM Tris pH 8.5, 10 mM MgCl2, 0.01% Brij-35, 1 mM EGTA, 2 mM dithiothreitol, 0.05 mM sodium orthovanadate) Following a 15-minute incubation at room temperature, the kinase reaction was started with the addition of 5 μl of 400 nM fluorescein-labeled LRRKtide peptide substrate and 134 μM ATP solution in 1× assay buffer. The reaction was allowed to progress at ambient temperature for 90 minutes. The reaction was then stopped by the addition of 20 μl of TR-FRET Dilution Buffer (Life Technologies, Carlsbad, Calif.) containing 2 nM Tb-labeled anti-phospho LRRKtide antibody and 10 mM EDTA (Life Technologies, Carlsbad, Calif.). After an incubation of 1 hour at room temperature, the plate was read on an EnVision multimode plate reader (Perkin Elmer, Waltham, Mass.) with an excitation wavelength of 337 nm (Laser) and a reading emission at both 520 and 495 nm. Compound IC50s were interpolated from nonlinear regression best fits of the log of the final compound concentration, plotted as a function of the 520/495-nm emission ratio using Activity base. Abase uses a 4 parameter (4P) logistic fit based on the Levenberg-Marquardt algorithm.

GST-tagged truncated human mutant G2019S LRRK2, sequence (Q5S007 970-2527 G2019S): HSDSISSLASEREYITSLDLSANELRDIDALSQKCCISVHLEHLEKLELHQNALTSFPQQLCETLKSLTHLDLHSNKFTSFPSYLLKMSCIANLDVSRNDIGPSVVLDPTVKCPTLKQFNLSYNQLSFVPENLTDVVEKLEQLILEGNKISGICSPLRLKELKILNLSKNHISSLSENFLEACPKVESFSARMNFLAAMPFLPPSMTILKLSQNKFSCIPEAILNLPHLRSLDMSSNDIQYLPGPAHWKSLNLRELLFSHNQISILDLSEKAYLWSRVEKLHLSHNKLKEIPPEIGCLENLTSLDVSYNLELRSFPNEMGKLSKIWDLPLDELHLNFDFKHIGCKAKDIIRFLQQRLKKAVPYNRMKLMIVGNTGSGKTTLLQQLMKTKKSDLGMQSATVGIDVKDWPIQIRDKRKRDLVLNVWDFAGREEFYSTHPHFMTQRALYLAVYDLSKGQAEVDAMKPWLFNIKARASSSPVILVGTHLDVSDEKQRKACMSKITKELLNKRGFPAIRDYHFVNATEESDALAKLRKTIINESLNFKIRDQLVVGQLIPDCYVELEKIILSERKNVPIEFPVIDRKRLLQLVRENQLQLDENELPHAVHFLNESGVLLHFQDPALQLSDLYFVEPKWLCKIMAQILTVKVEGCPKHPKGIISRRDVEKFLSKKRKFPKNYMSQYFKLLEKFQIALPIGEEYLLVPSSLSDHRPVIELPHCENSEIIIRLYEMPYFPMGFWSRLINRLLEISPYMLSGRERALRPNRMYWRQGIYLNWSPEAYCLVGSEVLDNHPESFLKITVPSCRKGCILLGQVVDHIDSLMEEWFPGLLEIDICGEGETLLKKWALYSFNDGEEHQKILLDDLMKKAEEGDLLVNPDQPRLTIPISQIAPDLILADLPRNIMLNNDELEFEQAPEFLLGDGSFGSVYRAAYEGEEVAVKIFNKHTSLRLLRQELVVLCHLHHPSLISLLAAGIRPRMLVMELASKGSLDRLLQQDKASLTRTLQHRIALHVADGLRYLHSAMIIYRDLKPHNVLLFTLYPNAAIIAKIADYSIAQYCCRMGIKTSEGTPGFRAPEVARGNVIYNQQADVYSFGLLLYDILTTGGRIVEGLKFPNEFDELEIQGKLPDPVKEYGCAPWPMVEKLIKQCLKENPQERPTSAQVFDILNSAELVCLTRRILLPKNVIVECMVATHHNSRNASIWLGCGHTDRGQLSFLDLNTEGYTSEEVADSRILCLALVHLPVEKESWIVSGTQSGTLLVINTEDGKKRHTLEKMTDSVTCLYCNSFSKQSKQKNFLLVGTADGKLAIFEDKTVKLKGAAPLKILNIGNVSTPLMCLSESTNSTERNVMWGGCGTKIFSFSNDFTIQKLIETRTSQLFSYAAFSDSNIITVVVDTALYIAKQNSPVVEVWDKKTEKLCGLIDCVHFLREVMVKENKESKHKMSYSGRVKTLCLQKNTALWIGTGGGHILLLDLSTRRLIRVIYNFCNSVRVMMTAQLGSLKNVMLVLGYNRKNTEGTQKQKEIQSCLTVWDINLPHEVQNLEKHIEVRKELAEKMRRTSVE

Row | Compound | IC50 [nM]
1 | CN1CCN(c2cc(-n3ncc4ccc(C5(C#N)CC6(CC6)C5)cc43)ncn2)CC1CO (single isomer, unassigned) [Example 15, 5-(1-(6-(3-(hydroxymethyl)-4-methylpiperazin-1-yl)pyrimidin-4-yl)-1H-indazol-6-yl)spiro[2.3]hexane-5-carbonitrile] | 3.8
2 | CN1CCN(c2cc(-n3ncc4ccc(C5(C#N)CC6(CC6)C5)cc43)ncn2)CC1CO (single isomer, unassigned) [Example 16, 5-(1-(6-(3-(hydroxymethyl)-4-methylpiperazin-1-yl)pyrimidin-4-yl)-1H-indazol-6-yl)spiro[2.3]hexane-5-carbonitrile] | 1.2
3 | CC(C)(O)C1CN(c2cc(-n3ncc4ccc(C5(C#N)CC6(CC6)C5)cc43)ncn2)CC1F (single isomer, unassigned) [Example 22, 5-(1-(6-(3-fluoro-4-(2-hydroxypropan-2-yl)pyrrolidin-1-yl)pyrimidin-4-yl)-1H-indazol-6-yl)spiro[2.3]hexane-5-carbonitrile] | 3.7
4 | CC(C)(O)C1CN(c2cc(-n3ncc4ccc(C5(C#N)CC6(CC6)C5)cc43)ncn2)CC1F (single isomer, unassigned) [Example 23, 5-(1-(6-(3-fluoro-4-(2-hydroxypropan-2-yl)pyrrolidin-1-yl)pyrimidin-4-yl)-1H-indazol-6-yl)spiro[2.3]hexane-5-carbonitrile] | 4.6
5 | C[C@H]1CN(c2cc(-n3ncc4ccc(C5(C#N)CC6(CC6)C5)cc43)ncn2)CCN1C1CCOC1 (single isomer, unassigned) [Example 34] | 0.9
6 | C[C@H]1CN(c2cc(-n3ncc4ccc(C5(C#N)CC6(CC6)C5)cc43)ncn2)CCN1C1CCOC1 (single isomer, unassigned) [Example 35] | 3.5
7 | CC1C(C(C)(C)O)CCN1c1cc(-n2ncc3ccc(C4(C#N)CC5(CC5)C4)cc32)ncn1 (single isomer, unassigned) [Example 36, 5-(1-(6-(3-(2-hydroxypropan-2-yl)-2-methylpyrrolidin-1-yl)pyrimidin-4-yl)-1H-indazol-6-yl)spiro[2.3]hexane-5-carbonitrile] | 3.2
8 | CC1C(C(C)(C)O)CCN1c1cc(-n2ncc3ccc(C4(C#N)CC5(CC5)C4)cc32)ncn1 (single isomer, unassigned) [Example 37, 5-(1-(6-(3-(2-hydroxypropan-2-yl)-2-methylpyrrolidin-1-yl)pyrimidin-4-yl)-1H-indazol-6-yl)spiro[2.3]hexane-5-carbonitrile] | 138
9 | CC1C(C(C)(C)O)CCN1c1cc(-n2ncc3ccc(C4(C#N)CC5(CC5)C4)cc32)ncn1 (single isomer, unassigned) [Example 38, 5-(1-(6-(3-(2-hydroxypropan-2-yl)-2-methylpyrrolidin-1-yl)pyrimidin-4-yl)-1H-indazol-6-yl)spiro[2.3]hexane-5-carbonitrile] | 59
10 | CC1C(C(C)(C)O)CCN1c1cc(-n2ncc3ccc(C4(C#N)CC5(CC5)C4)cc32)ncn1 (single isomer, unassigned) [Example 39, 5-(1-(6-(3-(2-hydroxypropan-2-yl)-2-methylpyrrolidin-1-yl)pyrimidin-4-yl)-1H-indazol-6-yl)spiro[2.3]hexane-5-carbonitrile] | 1.2
11 | CN1CCOC2CN(c3cc(-n4ncc5ccc(C6(C#N)CC7(CC7)C6)cc54)ncn3)CC21 (single isomer, unassigned) [Example 40, 5-(1-(6-(4-methylhexahydropyrrolo[3,4-b][1,4]oxazin-6(2H)-yl)pyrimidin-4-yl)-1H-indazol-6-yl)spiro[2.3]hexane-5-carbonitrile] | 0.9
12 | CN1CCOC2CN(c3cc(-n4ncc5ccc(C6(C#N)CC7(CC7)C6)cc54)ncn3)CC21 (single isomer, unassigned) [Example 41] | 1.2
13 | CC1CC12CC(C#N)(c1ccc3cnn(-c4cc(N5CCN6CCOC[C@@H]6C5)ncn4)c3c1)C2 (single isomer, unassigned) [Example 50] | 4.4
14 | CC1CC12CC(C#N)(c1ccc3cnn(-c4cc(N5CCN6CCOC[C@@H]6C5)ncn4)c3c1)C2 (single isomer, unassigned) [Example 51] | 9.8
15 | CC1CC12CC(C#N)(c1ccc3cnn(-c4cc(N5CCN6CCOC[C@@H]6C5)ncn4)c3c1)C2 (single isomer, unassigned) [Example 52] | 2.4
16 | CC1C2(CC2)CC1(C#N)c1ccc2cnn(-c3cc(N4CCN5CCOC[C@@H]5C4)ncn3)c2c1 (single isomer, unassigned) [Example 53] | 7.9
17 | CC1C2(CC2)CC1(C#N)c1ccc2cnn(-c3cc(N4CCN5CCOC[C@@H]5C4)ncn3)c2c1 (single isomer, unassigned) [Example 54] | 1.7
18 | CC1C2(CC2)CC1(C#N)c1ccc2cnn(-c3cc(N4CCN5CCOC[C@@H]5C4)ncn3)c2c1 (single isomer, unassigned) [Example 55] | 34
19 | CC1C2(CC2)CC1(C#N)c1ccc2cnn(-c3cc(N4CCN5CCOC[C@@H]5C4)ncn3)c2c1 (single isomer, unassigned) [Example 56] | 3
20 | N#CC1(c2ccc3cnn(-c4cc(N5CC[C@@H](O)[C@@H](F)C5)ncn4)c3c2)CC2(CC2)C1 [Example 1, 5-(1-(6-((3S,4R)-3-fluoro-4-hydroxypiperidin-1-yl)pyrimidin-4-yl)-1H-indazol-6-yl)spiro[2.3]hexane-5-carbonitrile] | 4.4
21 | Cc1nc(N2CC[C@H](O)[C@@H](F)C2)cc(-n2ncc3ccc(C4(C#N)CC5(CC5)C4)cc32)n1 [Example 2, 5-(1-(6-((3S,4S)-3-fluoro-4-hydroxypiperidin-1-yl)-2-methylpyrimidin-4-yl)-1H-indazol-6-yl)spiro[2.3]hexane-5-carbonitrile] | 5.1
22 | Cc1nc(N2CC[C@H](O)[C@H](F)C2)cc(-n2ncc3ccc(C4(C#N)CC5(CC5)C4)cc32)n1 [Example 3, 5-(1-(6-((3R,4S)-3-fluoro-4-hydroxypiperidin-1-yl)-2-methylpyrimidin-4-yl)-1H-indazol-6-yl)spiro[2.3]hexane-5-carbonitrile] | 18
23 | Cc1nc(N2CC[C@@H](O)[C@@H](F)C2)cc(-n2ncc3ccc(C4(C#N)CC5(CC5)C4)cc32)n1 [Example 4, 5-(1-(6-((3S,4R)-3-fluoro-4-hydroxypiperidin-1-yl)-2-methylpyrimidin-4-yl)-1H-indazol-6-yl)spiro[2.3]hexane-5-carbonitrile] | 7.4
24 | Cc1nc(N2CC3(C(C)(C)O)CC2C3)cc(-n2ncc3ccc(C4(C#N)CC5(CC5)C4)cc32)n1 [Example 5, 5-(1-(6-(4-(2-hydroxypropan-2-yl)-2-azabicyclo[2.1.1]hexan-2-yl)-2-methylpyrimidin-4-yl)-1H-indazol-6-yl)spiro[2.3]hexane-5-carbonitrile] | 12.3
25 | N#CC1(c2ccc3cnn(-c4cc(N5CC[C@H](O)[C@@H](F)C5)ncn4)c3c2)CC2(CC2)C1 [Example 6, 5-(1-(6-((3S,4S)-3-fluoro-4-hydroxypiperidin-1-yl)pyrimidin-4-yl)-1H-indazol-6-yl)spiro[2.3]hexane-5-carbonitrile] | 6.2
26 | N#CC1(c2ccc3cnn(-c4cc(N5CC6(CO)CC5C6)ncn4)c3c2)CC2(CC2)C1 [Example 7, 5-(1-(6-(4-(hydroxymethyl)-2-azabicyclo[2.1.1]hexan-2-yl)pyrimidin-4-yl)-1H-indazol-6-yl)spiro[2.3]hexane-5-carbonitrile] | 1.5
27 | N#CC1(c2ccc3cnn(-c4cc(N5CC[C@@H](CO)C5)ncn4)c3c2)CC2(CC2)C1 [Example 8, (R)-5-(1-(6-(3-(hydroxy-methyl)pyrrolidin-1-yl)pyrimidin-4-yl)-1H-indazol-6-yl)spiro[2.3]hexane-5-carbonitrile] | 2.9
28 | COCC12CC(C1)N(c1cc(-n3ncc4ccc(C5(C#N)CC6(CC6)C5)cc43)ncn1)C2 [Example 9, 5-(1-(6-(4-(methoxymethyl)-2-azabicyclo[2.1.1]hexan-2-yl)pyrimidin-4-yl)-1H-indazol-6-yl)spiro[2.3]hexane-5-carbonitrile] | 9.3
29 | Cc1nc(N2CC[C@@H](C(C)(C)O)C2)cc(-n2ncc3ccc(C4(C#N)CC5(CC5)C4)cc32)n1 [Example 10, (R)-5-(1-(6-(3-(2-hydroxypropan-2-yl)pyrrolidin-1-yl)-2-methylpyrimidin-4-yl)-1H-indazol-6-yl)spiro[2.3]hexane-5-carbonitrile] | 3.8
